In one series the target is EPX (Homo sapiens (Human), UniProt P11678). Description: EPX Bromination Assay. The format is biochemical. Particulars: EPX bromination activity, 100 mM KPi (pH 7.4), 3-bromo tyrosine formation. Here is the method:
(§1) [formula] where A=minimal Y value (activity level of inhibited sample), B=maximal Y value (activity level of uninhibited sample), C=Log IC50, D=Hill Slope, x=concentration of inhibitor. EPX Bromination Assay
EPX bromination activity was measured in 100 mM KPi (pH 7.4) by monitoring the H2O2 catalyzed formation of 3-bromo tyrosine from tyrosine and potassium bromide. A 50 μl mixture of 0.6 μM EPX (Lee Biosolutions Cat. #342-60) was added to 100 nL inhibitor in 100% DMSO in a 384 well REMP plate. Enzyme and compound were preincubated for ten minutes at room temperature.
After the ten minute preincubation of enzyme and inhibitor, 25 μL of a mixture containing 400 μM tyrosine and 1200 μM potassium bromide was added to the plate containing enzyme and inhibitor, followed by the addition of 25 μl of 20 μM H2O2. The reaction was allowed to proceed for 15 minutes, at which time it was quenched with 10 μL of 20% TCA. The final concentrations of all components were 0.3 μM EPX, 100 μM tyrosine, […], 5 μM H2O2, 0.1% DMSO, 2.0% TCA.
IC50 values were determined by determining the peak areas of 3-bromo-tyrosine present at the end of the 15 minute reaction and fitting the data to:
[formula] where A=minimal Y value (activity level of inhibited sample), B=maximal Y value (activity level of uninhibited sample), C=Log IC50, D=Hill Slope, x=concentration of inhibitor.
Reversed-phase analysis was performed on a Waters Acquity Ultra Performance LC system using an Acquity UPLC BEH C18 […], 2.1×50 mm analytical column. The column was maintained at 60° C. Samples were eluted using a gradient of 0%-100% B over 2.5 minutes, followed by equilibration with 100% A for 1 minute where A consisted of 0.1% TFA and B consisted of 90% MeOH/0.1% TFA at a flow rate of 0.6 mL/min. The retention time of 3-bromo tyrosine was 1.22 min

The target of series [1] is T1, myeloperoxidase (Homo sapiens (Human), UniProt P05164). Description: MPO Chlorination Assay (APF Assay). It is filed as biochemical. The note with it: MPO chlorination activity, 100 mM KPi (pH 7.4), 120 mM NaCl, ten minute preincubation; potency ranges defined in nM. Here is the method: (§2) [formula] where A=minimal Y value (activity level of inhibited sample), B=maximal Y value (activity level of uninhibited sample), C=Log IC50, D=Hill Slope, x=concentration of inhibitor. MPO Chlorination Assay (APF Assay) MPO chlorination activity was measured in 100 mM KPi (pH 7.4) by utilizing the non-fluorescent reagent Aminophenyl fluorescein (APF, Invitrogen Cat. #A36003). APF is cleaved by (—OCl) to yield the fluorescent compound fluorescein. Reactions were carried out in 50 μL total volume by adding a 25 μL mixture of 200 pM myeloperoxidase and 120 mM NaCl to 100 nL inhibitor in 100% DMSO in a 384 well, non-binding surface clear bottom plate (Corning #3655). Enzyme, inhibitor, and chloride were preincubated for ten minutes at room temperature.
After the ten minute preincubation, 25 μL of an APF mixture containing […], 120 mM NaCl and 10 μM H2O2 was added to the plate using the internal dispensing system of a Hammatsu FDSS 6000. Kinetic determinations were carried out immediately on the FDSS 6000 (3 minute kinetic read, 1 read every second, ex: 485 nm, em: 535 nm). IC50 values for inhibitors were calculated by taking the slope of the linear portion of the kinetic measurement (20 seconds to 80-120 secs).
(§3) IC50 values were calculated by determining the slope of the linear portion of the kinetic trace (180-540 secs), and using that calculated slope to determine % inhibition occurring at each concentration of inhibitor using the following equation:
as §1

Series [2] concerns the target T1, myeloperoxidase. Description: MPO Peroxidation Assay (Amplex Red Assay). The format is biochemical. The note with it: MPO peroxidation activity, 100 mM KPi (pH 7.4), ten minute preincubation; potency ranges defined in nM. Here is the method:
MPO Peroxidation Assay (Amplex Red Assay)
MPO peroxidation activity was measured in 100 mM KPi (pH 7.4) by utilizing the non-fluorescent reagent Amplex Red (Invitrogen Cat. #A12222) which can be oxidized to the highly fluorescent resorufin. Amplex Red is oxidized by the peroxidase action of MPO to resorufin. Reactions were carried out in 50 μL total volume by adding a 25 μL mixture of 200 pM myeloperoxidase and 40 nM H2O2 (Sigma #349887) to 100 nL inhibitor in 100% DMSO in a 384 well Perkin Elmer Optiplate. Enzyme and compound were preincubated for ten minutes at room temperature.
After the ten minute preincubation, 25 μL of an Amplex Red mixture containing 200 μM Amplex Red and 10 mM H2O2 was added to the plate. Kinetic determinations were carried out immediately on a Perkin Elmer Envision (15 minute kinetic read, Ex: 535 nm, Em: 590 nm).
as §3, §2

Read-outs that look alike come from different tables or passages of the source.

EPX, sequence (P11678 251-715): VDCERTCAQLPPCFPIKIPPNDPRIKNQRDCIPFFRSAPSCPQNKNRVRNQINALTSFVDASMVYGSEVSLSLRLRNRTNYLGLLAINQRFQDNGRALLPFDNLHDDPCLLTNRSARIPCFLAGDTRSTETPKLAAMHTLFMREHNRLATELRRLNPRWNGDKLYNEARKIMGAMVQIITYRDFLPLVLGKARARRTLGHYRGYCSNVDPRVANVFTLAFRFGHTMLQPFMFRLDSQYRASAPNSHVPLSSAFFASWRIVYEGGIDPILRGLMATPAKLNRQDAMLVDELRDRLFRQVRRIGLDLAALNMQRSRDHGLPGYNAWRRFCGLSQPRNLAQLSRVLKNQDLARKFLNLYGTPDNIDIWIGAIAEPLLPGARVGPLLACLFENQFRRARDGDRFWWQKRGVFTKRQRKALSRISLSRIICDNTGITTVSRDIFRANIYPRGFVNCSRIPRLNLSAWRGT
EPX, sequence (P11678 140-250): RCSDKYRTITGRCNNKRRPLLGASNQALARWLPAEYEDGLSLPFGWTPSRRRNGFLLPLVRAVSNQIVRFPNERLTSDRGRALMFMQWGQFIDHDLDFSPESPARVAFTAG
T1 sequence (P05164 49-745): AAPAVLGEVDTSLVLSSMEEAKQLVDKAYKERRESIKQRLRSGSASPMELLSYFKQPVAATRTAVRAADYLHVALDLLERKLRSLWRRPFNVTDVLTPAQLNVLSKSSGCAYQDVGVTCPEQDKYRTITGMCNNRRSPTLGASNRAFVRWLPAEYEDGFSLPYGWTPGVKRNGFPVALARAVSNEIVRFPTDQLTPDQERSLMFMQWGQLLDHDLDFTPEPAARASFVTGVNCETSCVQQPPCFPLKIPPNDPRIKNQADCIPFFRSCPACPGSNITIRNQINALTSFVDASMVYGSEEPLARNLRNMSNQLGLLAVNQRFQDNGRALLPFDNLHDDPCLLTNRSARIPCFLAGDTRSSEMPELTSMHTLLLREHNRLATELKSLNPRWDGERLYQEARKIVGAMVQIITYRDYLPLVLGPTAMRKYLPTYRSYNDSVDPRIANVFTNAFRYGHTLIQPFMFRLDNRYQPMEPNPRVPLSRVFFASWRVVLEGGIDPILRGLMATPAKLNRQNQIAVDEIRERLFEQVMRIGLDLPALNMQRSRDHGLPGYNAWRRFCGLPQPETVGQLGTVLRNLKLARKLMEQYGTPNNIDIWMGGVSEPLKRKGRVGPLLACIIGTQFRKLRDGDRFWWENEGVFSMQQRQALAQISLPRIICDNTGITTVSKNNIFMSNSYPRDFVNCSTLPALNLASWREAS

Regarding `CC(C)(C)OC(=O)N(C/C=C(\I)c1cc(NC(c2ccccc2)(c2ccccc2)c2ccccc2)nc2c1nnn2C(c1ccccc1)(c1ccccc1)c1ccccc1)CC(=O)N(CCc1ccccc1)Cc1cccc(Cn2cc(B3OC(C)(C)C(C)(C)O3)cn2)c1`, the ring closure, isolated yield (the molecule shown is the open-chain precursor, cc_pd bond, 15-membered ring, PdCl2(dppf)-CH2Cl2/K2CO3, dioxane/H2O, 1.07 mM, 85.0 °C) worked out at 42%.

For the compound `CC(C)(C)OC(=O)N(C/C=C(\I)c1cc(NC(c2ccccc2)(c2ccccc2)c2ccccc2)nc2c1nnn2C(c1ccccc1)(c1ccccc1)c1ccccc1)CCCOc1cccc(Cn2cc(B3OC(C)(C)C(C)(C)O3)cn2)c1`, the ring closure, isolated yield (the molecule shown is the open-chain precursor, cc_pd bond, 15-membered ring, PdCl2(dppf)-CH2Cl2/K2CO3, dioxane/H2O, 1.04 mM, 85.0 °C) worked out at 39.1%. Regarding `Nc1cc(C2CCNCc3cccc(c3)COc3cccc(c3)Cn3cc2cn3)c2nn[nH]c2n1` (stereo not shown) [Example 2, 7-{18-oxa-3,4,10-triazatetracyclo[17.3.1.1^3,^6.1^12,^1^6]pentacosa-1(23),4,6(25),12,14,16(24),19,21-octaen-7-yl}-3H-[1,2,3]triazolo[4,5-b]pyridin-5-amine], the concentration for half-maximal inhibition (IC50) against EPX was 190 nM; on myeloperoxidase [1] it was 1 to 100 nM; on myeloperoxidase [2], 101 to 999 nM. `c1ccc(C(Nc2cc(C3CCNCc4cccc(c4)COc4cccc(c4)Cn4cc3cn4)c3nnn(C(c4ccccc4)(c4ccccc4)c4ccccc4)c3n2)(c2ccccc2)c2ccccc2)cc1` (stereo not shown) gave a ring closure, isolated yield (from OCc1cccc(CNCCC(c2cnn(Cc3cccc(O)c3)c2)c2cc(NC(c3ccccc3)(c3ccccc3)c3ccccc3)nc3c2nnn3C(c2ccccc2)(c2ccccc2)c2ccccc2)c1, ether bond, 17-membered ring, PPh3/DIAD, THF) of 94%. With `Oc1cccc(Cn2cc(C(CCNCc3cccc(I)c3)c3cc(NC(c4ccccc4)(c4ccccc4)c4ccccc4)nc4c3nnn4C(c3ccccc3)(c3ccccc3)c3ccccc3)cn2)c1` (stereo not shown), the ring closure, isolated yield (the molecule shown is the open-chain precursor, ether bond, 16-membered ring, CuI/1,10-phenanthroline/Cs2CO3, toluene, 4.8 mM, 150.0 °C) worked out at 29%. For the setting “the molecule shown is the open-chain precursor, cc_pd bond, 17-membered ring, PdCl2(dppf)-CH2Cl2/K2CO3, dioxane/H2O, 2.45 mM, 85.0 °C”, `CC1(C)OB(c2cnn(Cc3cccc(Oc4cccc(CCNC/C=C(\I)c5cc(NC(c6ccccc6)(c6ccccc6)c6ccccc6)nc6c5nnn6C(c5ccccc5)(c5ccccc5)c5ccccc5)c4)c3)c2)OC1(C)C` came in with a ring closure, isolated yield of 35.1%. As to `Nc1cc(C2CCNCC3(CC3)COc3cccc(c3)Cn3cc2cn3)c2nn[nH]c2n1` (single isomer, unassigned) [Example 20, 7-{14′-Oxa-3′,4′,10′-triazaspiro[cyclopropane-1,12′-tricyclo[13.3.1.1^3,^6]icosane]-1′(19′),4′,6′(20′),15′,17′-pentaen-7′-yl}-3H-[1,2,3]triazolo[4,5-b]pyridin-5-amine], the half-maximal inhibitory concentration (IC50) against EPX was 63 nM; against myeloperoxidase [1], 101 to 999 nM; against myeloperoxidase [2] it was 101 to 999 nM. `Nc1cc(C2CCNC3CCC(CC3)COc3cccc(c3)Cn3cc2cn3)c2nn[nH]c2n1` (stereo not shown) [Example 18, 7-{3-Oxa-10,11,17-triazatetracyclo[16.2.2.1^4,^8.1^1^0,^13]tetracosa-4,6,8(24),11,13(23)-pentaen-14-yl}-3H-[1,2,3]triazolo[4,5-b]pyridin-5-amine]: the results for the IC50 on EPX, on myeloperoxidase [1] and against myeloperoxidase [2] were 220 nM, 1 to 100 nM and 101 to 999 nM, respectively.

As for `CC(C)(C)OC(=O)N1CC=C(c2cc(N)nc3[nH]nnc23)c2cnn(c2)Cc2cccc(c2)O[C@@H]2CC13CCC2(c1ccccc1)CC3`, for the setting “from CC(C)(C)OC(=O)N(C/C=C(\c1cnn(Cc2cccc(O)c2)c1)c1cc(N)nc2[nH]nnc12)C12CCC(c3ccccc3)(CC1)[C@@H](O)C2, ether bond, 15-membered ring, cyanomethylenetributylphosphorane, toluene, 5.0 mM, 100.0 °C”, the ring closure, isolated yield was found to be 85%. With `Nc1cc(C2CCNCCc3cccc(c3)Oc3cccc(c3)Cn3cc2cn3)c2nn[nH]c2n1` (single isomer, unassigned) [Example 5, 7-{18-oxa-3,4,10-triazatetracyclo[17.3.1.1^3,^6.1^13,^1^7]pentacosa-1(23),4,6(25),13,15,17(24),19,21-octaen-7-yl}-3H-[1,2,3]triazolo[4,5-b]pyridin-5-amine], the half-maximal inhibitory concentration (IC50) on EPX was 37 nM; against myeloperoxidase [1], 1 to 100 nM; against myeloperoxidase [2], 1 to 100 nM. `C[C@@H](Cc1cccc(Oc2cccc(Cn3cc(B4OC(C)(C)C(C)(C)O4)cn3)c2)c1)N(C/C=C(\I)c1cc(NC(c2ccccc2)(c2ccccc2)c2ccccc2)nc2c1nnn2C(c1ccccc1)(c1ccccc1)c1ccccc1)C(=O)OC(C)(C)C` registered a ring closure, isolated yield (the molecule shown is the open-chain precursor, cc_pd bond, 17-membered ring, PdCl2(dppf)-CH2Cl2/K2CO3, dioxane/H2O, 1.28 mM, 85.0 °C) of 36%.

As usually defined, the IC50 is the concentration needed to halve the response being measured. Low values mean inhibition by little substance, high ones a need for much substance.

(Values after patent publication US10577383B2, “Macrocyclic inhibitors of myeloperoxidase” (BRISTOL-MYERS SQUIBB COMPANY, priority 2016, dated 2020).)
